Source: US6365628B1 (Thia Medica AS, priority 1998, dated 2002)

Legend:
PPARγ = target: T1, PPARγ (Homo sapiens, UniProt P37231); experiment: Ligand of PPARγ; assay type: binding
T1 sequence (P37231 1-505): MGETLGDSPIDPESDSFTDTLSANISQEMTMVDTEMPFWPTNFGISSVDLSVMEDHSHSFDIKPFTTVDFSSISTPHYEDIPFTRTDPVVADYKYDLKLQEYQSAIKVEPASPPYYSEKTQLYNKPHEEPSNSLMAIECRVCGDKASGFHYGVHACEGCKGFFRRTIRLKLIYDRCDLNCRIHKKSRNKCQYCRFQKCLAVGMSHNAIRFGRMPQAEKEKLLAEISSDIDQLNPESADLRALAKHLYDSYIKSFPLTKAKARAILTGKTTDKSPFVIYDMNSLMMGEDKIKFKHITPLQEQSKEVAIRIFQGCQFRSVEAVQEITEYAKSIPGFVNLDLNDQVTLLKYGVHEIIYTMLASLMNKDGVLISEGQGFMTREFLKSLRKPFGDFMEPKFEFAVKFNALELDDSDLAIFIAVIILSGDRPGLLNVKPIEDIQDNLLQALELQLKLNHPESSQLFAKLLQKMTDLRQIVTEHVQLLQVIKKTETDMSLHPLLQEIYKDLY

[1] = system: mouse lymphoma cells, L5178Y; experiment: Mutagenicity test in mouse lymphoma cells L5178Y; assay type: cell-based; conditions: 2.5-50 mg/ml
Source text: (§1) Tests for mutagenic activity have been performed by Covance Laboratories Limited, England. […] Furthermore, TTA was not mutagenic when tested in mouse lymphoma cells […] L5178Y.

obese Zucker fa/fa rats = experiment: Fatty acid composition in liver and plasma of obese Zucker fa/fa rats (Example 19); assay type: in vivo, rat; conditions: 300 mg/day/kg gavage once daily for 10 days, delta-9-desaturated product of TTA
Experimental: Male obese Zucker fa/fa rats, weighing 100 g at the start of the experiment, were housed in pairs in metal wire cages in a room maintained at 12 h light-dark cycles and a constant temperature of 20±3° C. The animals were acclimatised for at least one week under these conditions before the start of the experiment.
TTA and palmitic acid (control), was suspended in 0.5% (w/v) carboxymethyl cellulose (CMC) and administered at a dose of 300 mg/day/kg body weight, by gastric intubation (gavage) once daily for 10 days. The rats were fasted for 2 hours before termination of the experiment. Blood and organs were collected. Total lipids were extracted from liver and plasma. The lipids were evaporated, saponified and esterified prior to separation using a Carlo Erba 2900 gas-chromatograph.

male Wistar rats = experiment: Hepatic levels of triacylglycerol in rats fed fatty acid analogues (Example 17); assay type: in vivo, rat; conditions: TTA 150 mg/kg/day for 6 days, no prefeeding
Source text: Even an increased hepatic level of triacylglycerol may be relieved by TTA. Feeding rats with an inhibitor of fatty acid oxidation will increase the level of hepatic triacylglycerol resulting in fatty liver. Tetradecyl-4-thia propionic acid (TTP) is a fatty acid analogue with a sulphur atom in the 4 position. This analogue inhibits the β-oxidation of fatty acids due to the formation of a mitochondrial inhibitor. Feeding rats with this analogue results in the formation of fatty. However, if the rats are fed with a combination of TTA and TTP, the formation of fatty liver is avoided (Table 8). This provides evidence that TTA may be used for the treatment of conditions with an increased hepatic level of triacylglycerol. Male Wistar rats had free access to water and rat maintenance chow. They were fed palmitic acid or fatty acid analogues suspended in 0.5% CMC for 6 days. In some experiments TTA or TTP were fed for 3 days before feeding both for 6 days. At the end of the experiment the rats were fasted overnight, killed, the liver removed and homogenized. Triacylglycerol was measured in the homogenate.

[2] = system: Wistar Charles River rats; experiment: High fat diet induced hyperinsulinemia (Example 11); assay type: in vivo, rat; conditions: HF diet supplemented with TTA, 21 days, overnight fast (FIG. 3)
Experimental: Glucose (GLU, Boehringer Mannheim, Germany), free fatty acids (NEFA, C ACS-ACOD kit; Wako Chemicals, Dalton, USA) and b-hydroxybutyrate (310-A kit; Sigma Diagnostics Inc., St. Louis, USA) concentrations were measured using enzymatic methods. Insulin concentrations were determined with radioimmunoassay by (CIS bio International, Gif sur Yvette, France) using rat insulin as standard in the Zucker rats. In the Wistar Charles River rats, plasma glucose concentrations were measured with the aid of Beckman Glucose Analyzer (Fullerton, Calif., USA). Plasma insulin levels were measured using a RIA kit from Linco Research Inc. (St. Charles, Mo., USA). Phospholipids were measured by the enzymatic method of bioMérieux, Marcy-l {grave over ( )}Etoile, France, Triacylglycerol by the Technicon Method no. SA4-0324L90, USA and Cholesterol by the Technicon Method no. SA4-0305L90, USA.
Rats weighing 280-360 g were divided into 3 groups (n=6) and fed with three different diets: standard rat chow, high fat diet (HF) and HF supplemented with TTA. After 21 days on their respective diets, blood was collected after an overnight fast from the tail vein. The data are shown as mean±SEM. Results were analysed by ANOVA and different letters denote statistical significance (p<0.05).

male dogs = experiment: Body weights of male dogs treated for 4 weeks (Example 10); assay type: in vivo, dog; conditions: 500 mg/kg/day orally in capsules
Experimental: 3 male dogs (4-6 months old) were housed singly during the days. Each animal was offered 400 g of SQC Diet A each morning after dosing and any residue diet was removed in the afternoon. The drug was administered orally in capsules once daily for 28 days.

[3] = system: 5 weeks old Zucker (fa/fa) rats; experiment: Intravenous glucose tolerance test (IVGTT) (Example 15); assay type: in vivo, rat
Experimental: Male Zucker (fa/fa) rats (5 weeks old) were anaesthetised after a 5-hours fast, by intraperitoneal injection of sodium pentobarbital (50 mg/kg). The rats were injected with glucose (0.55 g/kg) in the saphenous vein and blood samples were collected from the tail vein in heparinized tubes at time 0, 5, 10, 15, 20 and 30 minutes after the glucose load. Samples were kept on ice, centrifuged and plasma was stored at −20° C. until analysis.

Salmonella typhimurium = experiment: Test for mutagenic activity in Salmonella typhimurium strains; assay type: cell-based; conditions: 3-1000 mg/plate (TTA) 2-5000 mg/plate (TSA)
Source text: as §1

Tetradecylthioacetic acid [TTA]
Ligand of PPARγ (PPARγ): less potent ligand
Mutagenicity in mouse lymphoma cells L5178Y [1]: not mutagenic
Monounsaturated tetradecylthioacetic acid, fatty acid composition in liver (% of total) (obese Zucker fa/fa rats): 1.1 ± 0.2 % of total
Monounsaturated tetradecylthioacetic acid, fatty acid composition in plasma (% of total) (obese Zucker fa/fa rats): 0.2 ± 0.1 % of total
Hepatic triacylglycerol TG (μmol/g) (male Wistar rats): 7,7 ± 2,9 μmol/g
High fat diet-induced hyperinsulinemia [2]: prevents high fat diet-induced hyperinsulinemia
Mean body weight (kg) (male dogs; week 0): 9,22 ± 1,77 kg
Mean body weight (kg) (male dogs; week 1): 8,95 kg
Mean body weight (kg) (male dogs; week 2): 8,75 ± 1,58 kg
Mean body weight (kg) (male dogs; week 3): 8,58 kg
Mean body weight (kg) (male dogs; week 4): 8,50 ± 1,74 kg
IVGTT glucose curves ([3]; TTA treated vs control (FIG. 7B)): normal and comparable
Plasma insulin response to glucose (IVGTT) ([3]; glucose 0.55 g/kg i.v. (FIG. 7A)): significantly lower
Induction of mutations in strains of Salmonella typhimurium (Salmonella typhimurium): did not induce mutations
